Data as given in ChEMBL document CHEMBL4507291 (2021).

Legend:
[1] = tested on: Tyrosine-protein kinase ABL1 (Homo sapiens), P00519 [Q252H]
[2] = biological target: T1, Ephrin type-A receptor 1 (Homo sapiens) (UniProt P21709)
T1 sequence (whole entry): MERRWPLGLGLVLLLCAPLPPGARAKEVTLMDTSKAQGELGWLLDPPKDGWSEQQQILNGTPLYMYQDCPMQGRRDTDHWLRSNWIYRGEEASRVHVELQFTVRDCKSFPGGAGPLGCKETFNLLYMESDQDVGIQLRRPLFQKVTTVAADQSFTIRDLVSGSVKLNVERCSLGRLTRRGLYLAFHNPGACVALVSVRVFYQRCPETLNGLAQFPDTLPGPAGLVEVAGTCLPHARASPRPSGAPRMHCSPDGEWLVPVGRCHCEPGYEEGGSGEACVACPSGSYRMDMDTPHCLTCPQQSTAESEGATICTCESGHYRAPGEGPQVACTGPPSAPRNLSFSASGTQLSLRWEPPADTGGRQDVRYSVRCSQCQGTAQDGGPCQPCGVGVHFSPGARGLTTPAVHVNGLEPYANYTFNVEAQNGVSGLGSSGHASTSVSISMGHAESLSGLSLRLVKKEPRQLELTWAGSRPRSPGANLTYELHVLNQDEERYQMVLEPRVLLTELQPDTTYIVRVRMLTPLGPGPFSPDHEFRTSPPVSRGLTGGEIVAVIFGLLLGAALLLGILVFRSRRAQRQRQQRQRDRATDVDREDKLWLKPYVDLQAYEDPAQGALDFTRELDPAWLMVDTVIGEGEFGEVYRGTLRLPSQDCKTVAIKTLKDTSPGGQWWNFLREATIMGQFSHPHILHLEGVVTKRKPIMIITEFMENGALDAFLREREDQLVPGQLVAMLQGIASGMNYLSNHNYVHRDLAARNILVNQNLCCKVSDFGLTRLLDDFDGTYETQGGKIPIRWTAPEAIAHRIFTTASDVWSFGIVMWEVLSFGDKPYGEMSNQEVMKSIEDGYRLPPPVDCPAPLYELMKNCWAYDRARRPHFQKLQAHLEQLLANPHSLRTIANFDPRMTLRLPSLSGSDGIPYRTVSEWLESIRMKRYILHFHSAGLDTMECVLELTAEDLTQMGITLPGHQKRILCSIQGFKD

[3] = biological target: Tyrosine-protein kinase Fgr (Homo sapiens) (UniProt P09769)
[4] = tested on: Receptor-type tyrosine-protein kinase FLT3 (Homo sapiens), P36888 [N841I]
[5] = biological target: Interleukin-1 receptor-associated kinase 3 (Homo sapiens) (UniProt Q9Y616)
[6] = biological target: Mast/stem cell growth factor receptor Kit (Homo sapiens) (UniProt P10721)
Mast/stem cell growth factor receptor Kit (Homo sapiens), sequence (P10721 whole entry): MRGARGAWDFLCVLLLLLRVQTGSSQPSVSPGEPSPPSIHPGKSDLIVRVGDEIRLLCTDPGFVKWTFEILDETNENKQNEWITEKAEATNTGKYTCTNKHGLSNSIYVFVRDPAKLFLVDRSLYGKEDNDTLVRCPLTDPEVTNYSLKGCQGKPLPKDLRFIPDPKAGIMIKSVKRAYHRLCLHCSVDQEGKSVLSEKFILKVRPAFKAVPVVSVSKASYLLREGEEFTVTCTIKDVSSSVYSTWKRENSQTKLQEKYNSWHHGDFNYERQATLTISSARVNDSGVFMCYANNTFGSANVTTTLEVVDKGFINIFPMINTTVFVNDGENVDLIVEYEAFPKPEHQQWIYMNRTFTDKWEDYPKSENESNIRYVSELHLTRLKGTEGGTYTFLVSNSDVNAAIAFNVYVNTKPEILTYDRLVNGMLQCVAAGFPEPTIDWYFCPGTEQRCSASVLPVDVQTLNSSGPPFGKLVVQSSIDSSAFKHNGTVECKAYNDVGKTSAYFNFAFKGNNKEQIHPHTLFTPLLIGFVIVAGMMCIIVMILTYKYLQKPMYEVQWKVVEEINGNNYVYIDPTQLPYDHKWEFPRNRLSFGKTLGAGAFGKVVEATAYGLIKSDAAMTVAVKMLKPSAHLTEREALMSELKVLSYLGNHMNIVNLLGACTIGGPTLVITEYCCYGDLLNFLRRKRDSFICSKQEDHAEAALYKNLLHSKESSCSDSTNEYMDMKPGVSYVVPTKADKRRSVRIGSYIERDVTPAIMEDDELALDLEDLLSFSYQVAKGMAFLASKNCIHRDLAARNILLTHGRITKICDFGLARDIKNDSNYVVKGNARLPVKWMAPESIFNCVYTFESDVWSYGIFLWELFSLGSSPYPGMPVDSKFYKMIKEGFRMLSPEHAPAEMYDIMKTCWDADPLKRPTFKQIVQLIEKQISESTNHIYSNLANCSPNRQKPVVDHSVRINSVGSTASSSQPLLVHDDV

[7] = biological target: T2, Mitogen-activated protein kinase kinase kinase 3 (Homo sapiens) (UniProt Q99759)
T2 sequence (whole entry): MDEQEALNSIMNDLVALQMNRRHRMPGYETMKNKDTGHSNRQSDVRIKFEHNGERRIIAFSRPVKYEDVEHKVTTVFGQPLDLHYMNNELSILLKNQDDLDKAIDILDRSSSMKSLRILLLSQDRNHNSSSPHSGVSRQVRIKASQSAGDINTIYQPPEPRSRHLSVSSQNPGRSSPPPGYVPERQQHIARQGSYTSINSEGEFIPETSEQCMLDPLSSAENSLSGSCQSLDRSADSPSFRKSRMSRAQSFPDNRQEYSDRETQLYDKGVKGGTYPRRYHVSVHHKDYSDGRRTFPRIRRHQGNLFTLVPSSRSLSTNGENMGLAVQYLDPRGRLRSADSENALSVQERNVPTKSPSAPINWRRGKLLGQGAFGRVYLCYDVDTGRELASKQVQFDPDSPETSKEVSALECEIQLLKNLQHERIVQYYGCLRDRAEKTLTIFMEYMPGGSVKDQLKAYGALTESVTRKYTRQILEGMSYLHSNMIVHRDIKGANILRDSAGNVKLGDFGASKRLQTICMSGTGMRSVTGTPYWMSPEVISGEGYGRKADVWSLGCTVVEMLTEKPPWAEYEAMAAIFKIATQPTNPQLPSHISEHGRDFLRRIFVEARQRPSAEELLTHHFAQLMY

[8] = biological target: Dual specificity mitogen-activated protein kinase kinase 1 (Homo sapiens) (UniProt Q02750)
Dual specificity mitogen-activated protein kinase kinase 1 (Homo sapiens), sequence (Q02750 whole entry): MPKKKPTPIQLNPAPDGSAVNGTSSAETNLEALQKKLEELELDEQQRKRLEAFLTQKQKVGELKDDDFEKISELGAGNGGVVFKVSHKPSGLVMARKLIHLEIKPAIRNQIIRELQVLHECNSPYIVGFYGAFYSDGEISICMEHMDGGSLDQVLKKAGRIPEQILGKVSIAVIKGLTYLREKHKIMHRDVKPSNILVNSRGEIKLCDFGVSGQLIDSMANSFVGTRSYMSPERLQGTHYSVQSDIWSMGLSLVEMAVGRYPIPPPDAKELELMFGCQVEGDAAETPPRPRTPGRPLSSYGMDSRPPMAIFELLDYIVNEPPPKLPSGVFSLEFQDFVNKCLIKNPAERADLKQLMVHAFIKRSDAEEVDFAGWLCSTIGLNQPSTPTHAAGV

[9] = tested on: Hepatocyte growth factor receptor (Homo sapiens), P08581 [Y1235D]
[10] = biological target: Serine/threonine-protein kinase MRCK beta (Homo sapiens) (UniProt Q9Y5S2)
[11] = biological target: Platelet-derived growth factor receptor beta (Homo sapiens) (UniProt P09619)
Platelet-derived growth factor receptor beta (Homo sapiens), sequence (P09619 whole entry, canonical isoform): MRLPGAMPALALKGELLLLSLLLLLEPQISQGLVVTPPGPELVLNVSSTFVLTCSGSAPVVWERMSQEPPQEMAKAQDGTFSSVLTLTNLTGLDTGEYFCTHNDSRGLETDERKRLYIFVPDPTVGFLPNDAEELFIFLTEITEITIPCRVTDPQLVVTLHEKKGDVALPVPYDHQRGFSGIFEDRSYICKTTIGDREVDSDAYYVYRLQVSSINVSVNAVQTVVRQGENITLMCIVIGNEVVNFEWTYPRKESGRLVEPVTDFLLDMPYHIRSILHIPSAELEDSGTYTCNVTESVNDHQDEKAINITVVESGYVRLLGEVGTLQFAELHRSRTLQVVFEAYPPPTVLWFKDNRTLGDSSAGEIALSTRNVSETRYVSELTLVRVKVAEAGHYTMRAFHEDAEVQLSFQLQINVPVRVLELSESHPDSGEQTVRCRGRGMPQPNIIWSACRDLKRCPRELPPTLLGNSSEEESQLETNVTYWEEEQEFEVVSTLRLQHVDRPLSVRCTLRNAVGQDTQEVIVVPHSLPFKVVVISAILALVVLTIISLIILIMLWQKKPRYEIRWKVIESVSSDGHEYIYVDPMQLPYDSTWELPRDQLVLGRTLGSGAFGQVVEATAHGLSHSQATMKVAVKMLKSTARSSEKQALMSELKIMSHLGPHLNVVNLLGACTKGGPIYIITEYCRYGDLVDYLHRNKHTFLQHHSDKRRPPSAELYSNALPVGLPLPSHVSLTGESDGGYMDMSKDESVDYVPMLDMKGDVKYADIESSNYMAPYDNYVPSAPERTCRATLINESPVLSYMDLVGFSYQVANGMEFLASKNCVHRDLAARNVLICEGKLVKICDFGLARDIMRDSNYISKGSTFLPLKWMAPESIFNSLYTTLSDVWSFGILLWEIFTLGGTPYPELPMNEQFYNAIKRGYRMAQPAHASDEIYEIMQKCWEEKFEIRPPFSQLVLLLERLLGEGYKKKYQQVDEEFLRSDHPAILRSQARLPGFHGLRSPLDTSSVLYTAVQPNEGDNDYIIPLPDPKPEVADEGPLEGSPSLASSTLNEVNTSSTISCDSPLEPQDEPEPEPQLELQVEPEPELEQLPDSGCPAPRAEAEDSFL

[12] = biological target: Phosphatidylinositol 4,5-bisphosphate 3-kinase catalytic subunit beta isoform (Homo sapiens) (UniProt P42338)
Phosphatidylinositol 4,5-bisphosphate 3-kinase catalytic subunit beta isoform (Homo sapiens), sequence (P42338 whole entry, looked up, canonical isoform): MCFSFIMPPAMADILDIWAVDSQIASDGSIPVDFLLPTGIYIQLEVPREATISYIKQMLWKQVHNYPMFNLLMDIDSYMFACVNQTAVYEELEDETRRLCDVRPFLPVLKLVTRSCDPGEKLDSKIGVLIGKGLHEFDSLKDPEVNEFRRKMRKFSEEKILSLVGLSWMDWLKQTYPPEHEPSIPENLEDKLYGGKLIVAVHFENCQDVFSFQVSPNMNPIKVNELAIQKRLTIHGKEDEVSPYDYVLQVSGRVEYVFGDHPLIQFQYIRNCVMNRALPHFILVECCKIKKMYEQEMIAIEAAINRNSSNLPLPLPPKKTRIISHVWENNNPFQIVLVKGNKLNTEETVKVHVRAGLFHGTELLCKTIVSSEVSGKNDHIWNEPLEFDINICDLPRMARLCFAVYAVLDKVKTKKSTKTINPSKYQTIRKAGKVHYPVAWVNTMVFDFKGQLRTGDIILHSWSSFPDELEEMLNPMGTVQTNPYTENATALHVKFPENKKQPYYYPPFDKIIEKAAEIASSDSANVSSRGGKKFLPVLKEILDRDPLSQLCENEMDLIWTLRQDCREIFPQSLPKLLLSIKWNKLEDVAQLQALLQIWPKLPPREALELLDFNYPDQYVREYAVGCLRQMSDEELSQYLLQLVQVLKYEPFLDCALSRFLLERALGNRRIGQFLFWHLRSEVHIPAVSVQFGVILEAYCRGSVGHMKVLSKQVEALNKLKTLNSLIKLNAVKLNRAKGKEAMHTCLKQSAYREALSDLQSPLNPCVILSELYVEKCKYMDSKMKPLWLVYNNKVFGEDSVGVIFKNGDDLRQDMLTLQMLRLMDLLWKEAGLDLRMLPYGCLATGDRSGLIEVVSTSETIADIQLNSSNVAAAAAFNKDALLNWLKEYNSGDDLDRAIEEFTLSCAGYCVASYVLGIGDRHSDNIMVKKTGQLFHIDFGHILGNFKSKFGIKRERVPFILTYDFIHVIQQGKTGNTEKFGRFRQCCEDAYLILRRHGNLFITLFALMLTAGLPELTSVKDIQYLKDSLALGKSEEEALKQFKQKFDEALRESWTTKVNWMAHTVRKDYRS

[13] = biological target: Phosphatidylinositol 4-kinase beta (Homo sapiens) (UniProt Q9UBF8)
[14] = biological target: Phosphatidylinositol 5-phosphate 4-kinase type-2 gamma (Homo sapiens) (UniProt Q8TBX8)
Phosphatidylinositol 5-phosphate 4-kinase type-2 gamma (Homo sapiens), sequence (Q8TBX8 whole entry): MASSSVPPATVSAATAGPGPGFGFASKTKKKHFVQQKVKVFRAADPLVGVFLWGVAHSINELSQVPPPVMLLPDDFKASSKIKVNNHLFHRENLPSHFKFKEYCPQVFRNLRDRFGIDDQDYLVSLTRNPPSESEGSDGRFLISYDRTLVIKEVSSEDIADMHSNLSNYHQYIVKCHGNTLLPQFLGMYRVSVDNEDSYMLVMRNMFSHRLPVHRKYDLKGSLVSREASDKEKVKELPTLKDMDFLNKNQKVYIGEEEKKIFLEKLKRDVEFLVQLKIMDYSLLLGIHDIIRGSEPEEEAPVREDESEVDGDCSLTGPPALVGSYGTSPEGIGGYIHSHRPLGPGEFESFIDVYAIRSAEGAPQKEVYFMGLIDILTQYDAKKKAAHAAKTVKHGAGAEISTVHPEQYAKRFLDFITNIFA

[15] = biological target: Tyrosine-protein kinase Srms (Homo sapiens) (UniProt Q9H3Y6)
Tyrosine-protein kinase Srms (Homo sapiens), sequence (Q9H3Y6 whole entry): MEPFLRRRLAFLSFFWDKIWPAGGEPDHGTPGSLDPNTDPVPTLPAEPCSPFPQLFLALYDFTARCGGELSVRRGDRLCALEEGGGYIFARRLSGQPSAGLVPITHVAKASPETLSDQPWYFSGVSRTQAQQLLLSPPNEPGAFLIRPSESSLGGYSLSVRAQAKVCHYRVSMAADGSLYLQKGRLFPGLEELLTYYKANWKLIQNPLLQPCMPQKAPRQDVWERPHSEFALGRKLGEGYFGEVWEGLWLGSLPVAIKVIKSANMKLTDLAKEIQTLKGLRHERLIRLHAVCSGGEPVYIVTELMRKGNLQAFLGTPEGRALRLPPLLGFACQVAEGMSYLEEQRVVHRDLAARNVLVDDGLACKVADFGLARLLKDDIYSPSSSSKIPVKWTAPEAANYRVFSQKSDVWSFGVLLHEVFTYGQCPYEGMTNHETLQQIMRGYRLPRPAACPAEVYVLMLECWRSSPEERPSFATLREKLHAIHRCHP

[16] = biological target: Serine/threonine-protein kinase TAO1 (Homo sapiens) (UniProt Q7L7X3)
[17] = biological target: Testis-specific serine/threonine-protein kinase 3 (Homo sapiens) (UniProt Q96PN8)
[18] = biological target: Delta-type opioid receptor (Homo sapiens) (UniProt P41143); conditions: Compound concentration 10.0 uM
Delta-type opioid receptor (Homo sapiens), sequence (P41143 whole entry): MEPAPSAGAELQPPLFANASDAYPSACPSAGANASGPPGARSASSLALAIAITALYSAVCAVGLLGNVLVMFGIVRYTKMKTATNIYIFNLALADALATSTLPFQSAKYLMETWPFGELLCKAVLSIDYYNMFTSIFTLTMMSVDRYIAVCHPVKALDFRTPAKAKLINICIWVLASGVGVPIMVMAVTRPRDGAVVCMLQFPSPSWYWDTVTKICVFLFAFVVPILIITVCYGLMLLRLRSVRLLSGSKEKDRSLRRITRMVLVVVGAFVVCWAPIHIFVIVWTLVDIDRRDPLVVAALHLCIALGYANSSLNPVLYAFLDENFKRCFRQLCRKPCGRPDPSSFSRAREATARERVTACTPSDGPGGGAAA

[19] = Compound concentration 1000.0 nM
[20] = Compound concentration 100.0 nM

Compound `C[C@@H]1CN(c2cc(-c3nn(C)c4ccc(OC5(C)CC5)cc34)ncn2)C[C@H](C)O1` [MLi-2-NC] has a residual activity [1, 19] of 58%, a residual activity [2, 19] of 100% and a residual activity [3, 19] of 90%. For the same compound, the residual activity [4, 19] was 85%, the residual activity [5, 19] was 89% and the residual activity [6, 19] was 97%. For the same compound, the residual activity [7, 19] was 90%, the residual activity [8, 19] was 74% and the residual activity [9, 19] was 87%. It also gave a residual activity [10, 19] of 100%, a residual activity [11, 19] of 100% and a residual activity [12, 19] of 100%. For the same compound, the residual activity [13, 19] was 89%, the residual activity [14, 19] was 98% and the residual activity [15, 19] was 83%. It also gave a residual activity [16, 19] of 82%, a residual activity [17, 19] of 75% and an inhibition [18] of 23.3%.

Work on `C[C@@H]1CN(c2cc(-c3n[nH]c4ccc(OC5(C)CC5)cc34)ncn2)C[C@H](C)O1` [MLi-2] yielded a residual activity [1, 20] of 64%, a residual activity [2, 20] of 76% and a residual activity [3, 20] of 89%. The residual activity [4, 20] was 46%, the residual activity [5, 20] was 94% and the residual activity [6, 20] was 70%. The residual activity [7, 20] was 64%, the residual activity [8, 20] was 88% and the residual activity [9, 20] was 92%. The residual activity [10, 20] was 93%, the residual activity [11, 20] was 73% and the residual activity [12, 20] was 59%. The residual activity [13, 20] was 100%, the residual activity [14, 20] was 90% and the residual activity [15, 20] was 59%. The residual activity [16, 20] was 86%, the residual activity [17, 20] was 79% and the inhibition [18] was 6.66%.
